Results published in patent US10626112B2, “Heterocyclic sulfonamide derivative and medicine comprising same” (EA PHARMA CO., LTD., priority 2014, dated 2020).

What follows are molecules tested against human TRPA1 (Homo sapiens (Human), UniProt O75762) (assay: Measurement of TRPA1 antagonist activity (1): intracellular calcium increase). Settings: 293T cells transfected with human TRPA1 expression plasmid; allylisothiocyanate 20 μM stimulation; intracellular calcium fluorescence; read-out: hTRPA1 IC50.
Assay type: cell-based
Text: Measurement of TRPA1 Antagonist Activity (1)
Human TRPA1 Expression Plasmid
As cDNA encoding human TRPA1 (GenBank accession No. […]), a commercially available product was purchased (manufactured by Kazusa DNA Research Institute, clone No.: pFN21AB7348, item No.: FHC07217). Using this as a template, full-length human TRPA1 gene was amplified using the primer sequences shown below, by reaction using DNA polymerase (manufactured by Stratagene, trade name: PfuUltra High-Fidelity DNA Polymerase).
A recognition site (underlined) of restriction enzyme HindIII was added to the 5′ side, and XbaI site (underlined) was added to the 3′ side, and GTT of the template sequence was changed to termination codon TAG (bold). The obtained double stranded DNA was enzyme-digested with HindIII and XbaI, and introduced into the multicloning site of expression plasmid pcDNA3.1/zeo(+) (manufactured by Invitrogen) to construct a human TRPA1 expression plasmid.
Human embryonic kidney-derived 293T cells were cultured in Dulbecco's Modified Eagle Medium containing 10% fetal bovine serum, 10 unit penicillin, and 10 μg streptomycin, plated on a petri dish having a diameter of 10 cm at 3×10^6 cells, and cultured for 24 hr in a CO2 incubator. A reduced serum medium (manufactured by Invitrogen, trade name: OPTI-MEM, 600 μL), a gene transfer reagent (manufactured by Mirus Bio, trade name: Mirus TransIT-293, 18 μL), and human TRPA1 expression plasmid (6 μg) were mixed, the total amount of the mixture was added to the cells on the petri dish to allow for gene transfer. The cells were recovered about for 8 hr later, plated on a poly-D-lysine coated 384 well black/clear bottom plate at 12,000 cells/well, and cultured overnight.
Measurement of Intracellular Calcium Increase
The 384 well plate was recovered, and the medium was removed. A calcium-bonded fluorescent indicator (manufactured by Molecular Device, trade name: Calcium4 Assay Kit, 38 μL) dissolved in assay buffer (1×HBSS, 20 mM HEPES, pH 7.2) was added, and the cells were stained in a CO2 incubator for 1 hr. The cells were taken out at room temperature, stood for not less than 15 min, a test substance (10 μL) was added by a platereader FDSS7000 (Hamamatsu Photonics K.K.) equipped with a 384ch dispenser. After 10 min, allylisothiocyanate (12 μL) was further added at a final concentration of 20 μM, and changes in the relative fluorescence intensity after addition of allylisothiocyanate were measured for 5 min.
Test Substance Preparation
The test substance was dissolved in dimethyl sulfoxide and serially diluted with an assay buffer containing 0.1% bovine serum albumin (1×HBSS, 20 mM HEPES, pH 7.2) to a 4.8-fold concentration of the evaluation concentration. Allylisothiocyanate, which is a known TRPA1 activator, was dissolved in dimethyl sulfoxide to 100 mM, and further diluted 5-fold (100 μM) of the final concentration, like the test substance.
Calculation of Antagonist Activity
Under the test substance-free conditions, the maximum variation range of the fluorescence intensity before and after allylisothiocyanate stimulation was defined to be 100% activity rate, and the variation range before and after buffer stimulation was defined as 0% activity rate. The activity rate on addition of the test substance was determined, and the numerical value obtained by subtracting the activity rate from 100 was defined to be an inhibitory rate. IC50, which is the concentration of the test substance necessary for reaching the 50% inhibitory rate, was calculated from the sigmoid approximate curve by a spreadsheet software Excel-Fit.

human TRPA1, sequence (O75762 whole entry): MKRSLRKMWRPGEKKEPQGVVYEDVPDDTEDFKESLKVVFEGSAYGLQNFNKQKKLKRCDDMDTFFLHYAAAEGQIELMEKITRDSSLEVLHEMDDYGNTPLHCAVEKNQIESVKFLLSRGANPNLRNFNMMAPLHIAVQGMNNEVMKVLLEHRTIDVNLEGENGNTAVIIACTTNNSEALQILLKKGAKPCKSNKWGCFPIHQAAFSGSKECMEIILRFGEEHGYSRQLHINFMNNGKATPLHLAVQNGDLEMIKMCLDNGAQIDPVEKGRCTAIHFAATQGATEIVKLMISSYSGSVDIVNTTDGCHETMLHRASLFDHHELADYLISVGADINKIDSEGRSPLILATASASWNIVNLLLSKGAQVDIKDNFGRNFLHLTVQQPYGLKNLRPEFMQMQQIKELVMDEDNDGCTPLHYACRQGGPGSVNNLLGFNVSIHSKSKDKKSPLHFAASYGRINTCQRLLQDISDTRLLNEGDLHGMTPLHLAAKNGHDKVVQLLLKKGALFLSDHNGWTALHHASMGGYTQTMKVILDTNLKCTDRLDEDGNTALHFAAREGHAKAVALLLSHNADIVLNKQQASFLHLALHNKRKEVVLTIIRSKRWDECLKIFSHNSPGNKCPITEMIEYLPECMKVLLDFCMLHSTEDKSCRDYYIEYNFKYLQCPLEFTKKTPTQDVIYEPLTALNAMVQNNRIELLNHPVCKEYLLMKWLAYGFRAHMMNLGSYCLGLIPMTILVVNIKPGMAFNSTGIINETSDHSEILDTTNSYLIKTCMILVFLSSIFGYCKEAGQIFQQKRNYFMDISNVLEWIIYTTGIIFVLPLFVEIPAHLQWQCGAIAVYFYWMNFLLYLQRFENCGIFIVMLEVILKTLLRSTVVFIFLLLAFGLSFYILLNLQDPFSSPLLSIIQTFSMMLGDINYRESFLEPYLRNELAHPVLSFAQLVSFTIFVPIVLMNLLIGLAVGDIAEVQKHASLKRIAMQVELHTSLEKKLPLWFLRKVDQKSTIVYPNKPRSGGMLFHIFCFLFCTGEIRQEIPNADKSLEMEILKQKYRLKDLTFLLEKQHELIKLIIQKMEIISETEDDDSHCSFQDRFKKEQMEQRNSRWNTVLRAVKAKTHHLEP

IC50	SMILES
0.39 µM	COc1c(F)ccc(CNC(=O)[C@@H]2CCCN2S(=O)(=O)c2cc3ccccc3o2)c1F [Example 68, (2S)-1-(benzofuran-2-ylsulfonyl)-N-[(2,4-difluoro-3-methoxy-phenyl)methyl]pyrrolidine-2-carboxamide]
0.012 µM	O=C(NCc1ccc(OC(F)(F)F)c(F)c1)[C@@H]1CCCN1S(=O)(=O)c1cc2cc(F)ccc2o1 [Example 69, (2S)-1-(5-fluorobenzofuran-2-yl)sulfonyl-N-[[3-fluoro-4-(trifluoromethoxy)phenyl]methyl]-pyrrolidine-2-carboxamide]
0.011 µM	O=C(NCc1ccc(F)c(OC(F)(F)F)c1)[C@@H]1CCCN1S(=O)(=O)c1cc2cc(F)ccc2o1 [Example 70, (2S)-1-(5-fluorobenzofuran-2-yl)sulfonyl-N-[[4-fluoro-3-(trifluoromethoxy)phenyl]methyl]-pyrrolidine-2-carboxamide]
0.0032 µM	O=C(NCc1cc(OC(F)(F)F)ccc1F)[C@@H]1CCCN1S(=O)(=O)c1cc2cc(F)ccc2o1 [Example 71, (2S)-1-(5-fluorobenzofuran-2-yl)sulfonyl-N-[[2-fluoro-5-(trifluoromethoxy)phenyl]methyl]-pyrrolidine-2-carboxamide]
0.35 µM	C[C@H](NS(=O)(=O)c1cc2ccccc2o1)C(=O)NCc1cc(C(F)(F)F)ccc1Cl [Example 72, (2S)-2-(benzofuran-2-ylsulfonylamino)-N-[[2-chloro-5-(trifluoromethyl)phenyl]methyl]-propanamide]
0.16 µM	C[C@H](NS(=O)(=O)c1cc2cc(F)ccc2o1)C(=O)NCc1cc(OC(F)(F)F)ccc1F [Example 73, (2S)-2-[(5-fluorobenzofuran-2-yl)sulfonylamino]-N-[[2-fluoro-5-(trifluoromethoxy)phenyl]methyl]-propanamide]
0.11 µM	O=C(NCc1ccc2occc2c1)[C@@H]1CCCN1S(=O)(=O)c1cc2cc(F)ccc2o1 [Example 74, (2S)-N-(benzofuran-5-ylmethyl)-1-(5-fluorobenzofuran-2-yl)sulfonyl-pyrrolidine-2-carboxamide]
0.047 µM	O=C(NCc1ccc(-c2ccccc2)cc1)[C@@H]1CCCN1S(=O)(=O)c1cc2cc(F)ccc2o1 [Example 76, (2S)-1-(5-fluorobenzofuran-2-yl)sulfonyl-N-[(4-phenylphenyl)methyl]pyrrolidine-2-carboxamide]
0.015 µM	O=C(NCc1cccc(-c2ccccc2)c1)[C@@H]1CCCN1S(=O)(=O)c1cc2cc(F)ccc2o1 [Example 77, (2S)-1-(5-fluorobenzofuran-2-yl)sulfonyl-N-[(3-phenylphenyl)methyl]pyrrolidine-2-carboxamide]
0.13 µM	O=C(NCc1ccccc1-c1ccccc1)[C@@H]1CCCN1S(=O)(=O)c1cc2cc(F)ccc2o1 [Example 78, (2S)-1-(5-fluorobenzofuran-2-yl)sulfonyl-N-[(2-phenylphenyl)methyl]pyrrolidine-2-carboxamide]

Further lines, the molecule ahead of its results:

SMILES	IC50
O=C(NCc1cccc(Oc2ccc(C(F)(F)F)cc2)c1)[C@@H]1CCCN1S(=O)(=O)c1cc2ccccc2o1 [Example 52, (2S)-1-(benzofuran-2-ylsulfonyl)-N-[[3-[4-(trifluoromethyl)phenoxy]phenyl]-methyl]pyrrolidine-2-carboxamide]	0.032 µM
O=C(NCc1cccc(Oc2ccc(C(F)(F)F)cc2)c1)[C@@H]1CCCN1S(=O)(=O)c1cc2cc(F)ccc2o1 [Example 53, (2S)-1-(5-fluorobenzofuran-2-yl)sulfonyl-N-[[3-[4-(trifluoromethyl)phenoxy]phenyl]-methyl]pyrrolidine-2-carboxamide]	0.0027 µM
O=C(NCc1cccc(Oc2ccc(C(F)(F)F)nc2)c1)[C@@H]1CCCN1S(=O)(=O)c1cc2ccccc2o1 [Example 54, (2S)-1-(benzofuran-2-ylsulfonyl)-N-[[3-[[6-(trifluoromethyl)-3-pyridyl]oxy]phenyl]methyl]-pyrrolidine-2-carboxamide]	0.009 µM
O=C(NCc1ccc(Oc2ccnc(C(F)(F)F)c2)cc1)[C@@H]1CCCN1S(=O)(=O)c1cc2ccccc2o1 [Example 55, (2S)-1-(benzofuran-2-ylsulfonyl)-N-[[4-[[2-(trifluoromethyl)-4-pyridyl]oxy]phenyl]methyl]-pyrrolidine-2-carboxamide]	0.088 µM
O=C(NCc1ccc(Oc2ccnc(C(F)(F)F)c2)cc1)[C@@H]1CCCN1S(=O)(=O)c1cc2cc(F)ccc2o1 [Example 56, (2S)-1-(5-fluorobenzofuran-2-yl)sulfonyl-N-[[4-[[2-(trifluoromethyl)-4-pyridyl]oxy]phenyl]methyl]-pyrrolidine-2-carboxamide]	0.021 µM
O=C(NCc1cccc(SCc2ccccc2)c1)[C@@H]1CCCN1S(=O)(=O)c1cc2ccccc2o1 [Example 57, (2S)-1-(benzofuran-2-ylsulfonyl)-N-[(3-benzylsulfanylphenyl)methyl]pyrrolidine-2-carboxamide]	0.016 µM
O=C(NCc1ccc(COc2ccccc2)cc1)[C@@H]1CCCN1S(=O)(=O)c1cc2ccccc2o1 [Example 58, (2S)-1-(benzofuran-2-ylsulfonyl)-N-[[4-(phenoxymethyl)phenyl]methyl]-pyrrolidine-2-carboxamide]	0.43 µM
O=C(NCc1cccc(F)c1)[C@@H]1CCCN1S(=O)(=O)c1cc2ccccc2o1 [Example 59, (2S)-1-(benzofuran-2-ylsulfonyl)-N-[(3-fluorophenyl)methyl]pyrrolidine-2-carboxamide]	0.54 µM
O=C(NCc1cccc(Cl)c1)[C@@H]1CCCN1S(=O)(=O)c1cc2ccccc2o1 [Example 60, (2S)-1-(benzofuran-2-ylsulfonyl)-N-[(3-chlorophenyl)methyl]pyrrolidine-2-carboxamide]	0.2 µM
O=C(NCc1cccc(C(F)(F)F)c1)[C@@H]1CCCN1S(=O)(=O)c1cc2ccccc2o1 [Example 61, (2S)-1-(benzofuran-2-ylsulfonyl)-N-[[3-(trifluoromethyl)phenyl]methyl]-pyrrolidine-2-carboxamide]	0.055 µM
O=C(NCc1cccc(OC(F)(F)F)c1)[C@@H]1CCCN1S(=O)(=O)c1cc2ccccc2o1 [Example 62, (2S)-1-(benzofuran-2-ylsulfonyl)-N-[[3-(trifluoromethoxy)phenyl]methyl]-pyrrolidine-2-carboxamide]	0.06 µM
O=C(NCc1ccc(OC(F)(F)F)cc1)[C@@H]1CCCN1S(=O)(=O)c1cc2ccccc2o1 [Example 63, (2S)-1-(benzofuran-2-ylsulfonyl)-N-[[4-(trifluoromethoxy)phenyl]methyl]-pyrrolidine-2-carboxamide]	0.06 µM
O=C(NCc1ccccc1OC(F)(F)F)[C@@H]1CCCN1S(=O)(=O)c1cc2ccccc2o1 [Example 64, (2S)-1-(benzofuran-2-ylsulfonyl)-N-[[2-(trifluoromethoxy)phenyl]methyl]-pyrrolidine-2-carboxamide]	0.1 µM
O=C(NCc1cccc(OC(F)(F)F)c1)[C@@H]1CCCN1S(=O)(=O)c1cc2cc(F)ccc2o1 [Example 65, (2S)-1-(5-fluorobenzofuran-2-yl)sulfonyl-N-[[3-(trifluoromethoxy)phenyl]methyl]-pyrrolidine-2-carboxamide]	0.015 µM
O=C(NCc1ccc(OC(F)(F)F)cc1)[C@@H]1CCCN1S(=O)(=O)c1cc2cc(F)ccc2o1 [Example 66, (2S)-1-(5-fluorobenzofuran-2-yl)sulfonyl-N-[[4-(trifluoromethoxy)phenyl]methyl]-pyrrolidine-2-carboxamide]	0.021 µM
O=C(NCc1cc(C(F)(F)F)ccc1Cl)[C@@H]1CCCN1S(=O)(=O)c1cc2ccccc2o1 [Example 67, (2S)-1-(benzofuran-2-ylsulfonyl)-N-[[2-chloro-5-(trifluoromethyl)phenyl]methyl]-pyrrolidine-2-carboxamide]	0.0097 µM
